Test results from article PMC11608315, “Subtilase SBT5.2 inactivates flagellin immunogenicity in the plant apoplast” (Nature Communications, 2024).
No end group written: not given here.

What was measured:
[1] = system: subtilases (SBTs), papain-like Cys proteases (PLCPs) and metalloproteases in AF; assay: QP processing in AF of leaves expressing protease inhibitors Epi1, SlCys8 or HsTIMP; format: biochemical, Nicotiana benthamiana; conditions: AF from leaves transiently expressing Epi1 (HsTIMP for comparison); EV = 100%; n = 3; Fig. 3a
Protocol: (§1) Agrobacterium tumefaciens GV3101 (pMP90) was used for agroinfiltration of N. benthamiana. Agrobacteria were grown overnight in Luria-Bertani (LB) medium with 10 μg/ml gentamycin and 50 μg/ml kanamycin at 28 °C. For transient expression of proteins in N. benthamiana, overnight cultures of Agrobacterium carrying binary vectors listed in Supplementary Table 1 were harvested by centrifugation. Bacterial cells were resuspended in agroinfiltration buffer (10 mM MgCl2, 10 mM MES pH 5.6, 150 μM acetosyringone) and mixed (1:1) with agrobacteria carrying the silencing inhibitor p19 at an OD600 of 0.5. After 1 h at 28 °C, cells were infiltrated into leaves of 4-week-old N. benthamiana. The infected plants were grown in a growth chamber until use.
The quenched peptides (QPs) from flagellin were commercially synthesised with a DABCYL N-terminal modification and a Glu-EDANS C-terminal modification (GenScript, Piscataway, New Jersey, United States) at a purity of 95% (Supplementary Table 2). They were resuspended in DMSO at a concentration of 1 mM. […] AFs or purified SBT5.2a were mixed with QPs at a final concentration of 10 µM in a volume of 100 µl, and fluorescence was measured immediately at 21 °C using an Infinite M200 plate reader (Tecan, Mannedorf, Switzerland) every minute over 5 min with an excitation wavelength of 335 nm and emission wavelength of 493 nm. […]

[2] = system: AF of sbt5.2 mutant N. benthamiana; format: in vitro ADME, Nicotiana benthamiana; conditions: 10 µM QP; n = 4; Fig. 5b
Protocol: (§2) The quenched peptides (QPs) from flagellin were commercially synthesised with a DABCYL N-terminal modification and a Glu-EDANS C-terminal modification (GenScript, Piscataway, New Jersey, United States) at a purity of 95% (Supplementary Table 2). They were resuspended in DMSO at a concentration of 1 mM. This stock solution was further diluted in water to a concentration of 200 µM. AFs or purified SBT5.2a were mixed with QPs at a final concentration of 10 µM in a volume of 100 µl, and fluorescence was measured immediately at 21 °C using an Infinite M200 plate reader (Tecan, Mannedorf, Switzerland) every minute over 5 min with an excitation wavelength of 335 nm and emission wavelength of 493 nm.
(§3) N. benthamiana leaves were submerged in ice-cold water and vacuum infiltrated in a 50 ml syringe with a plunger. The surface of water-infiltrated leaves was dried with absorbing paper and leaves were carefully inserted into an empty 20 ml syringe, which was placed in a 50 ml tube. AFs were collected by centrifugation at 2000 × g at 4 °C for 10 min. AFs were immediately used or frozen using liquid nitrogen and stored at −20 °C until use.

[3] = Solubility of quenched peptide (observation on dissolving the powder); format: physicochemical; conditions: noticed when dissolving the peptide powder; response to reviewers
[4] = system: SBT5.2, SBT1.9a, SBT1.7a, SBT1.7c in AF; assay: QP processing in AF of plants silenced for subtilases (VIGS); format: in vitro ADME, Nicotiana benthamiana; conditions: 10 µM QP; TRV::GFP = 100%; n = 3 plants; Fig. 4a
Protocol: as §2
(§4) Agrobacterium cultures were grown overnight and resuspended in an agroinfiltration buffer at OD600 = 0.5. Agrobacteria carrying binary plasmids for expressing RNA2 of TRV-carrying silencing fragments (Supplementary Table 1) were mixed 1:1 with Agrobacteria containing TRV1[38]. After incubation for 1 h at 21 °C, the mixed cultures were infiltrated into the leaves of 14-day-old N. benthamiana plants. The infiltrated plants were grown for another 4 to 5 weeks in a growth chamber until use.
N. benthamiana leaves were submerged in ice-cold water and vacuum infiltrated in a 50 ml syringe with a plunger. […]

purified SBT5.2a-His [5] = assay: QP cleavage by purified SBT5.2a-His (fluorescence); format: biochemical, Nicotiana benthamiana; conditions: 10 μl of 25 μg/ml SBT5.2a-His, 10 µM QP; n = 4; Fig. 6a
Protocol: as §2
(§5) Four-week-old N. benthamiana leaves were infiltrated with a 1:1 mixture (final OD600 = 0.5 for each) of Agrobacterium tumefaciens GV3101 containing the silencing suppressor P19 and pPB097[22]. Apoplastic fluid containing SBT5.2a-His was extracted 6 days after infiltration as described above and purified as previously described[40],[41]. Briefly, SBT5.2a-His was purified by HisPur™ Ni-NTA resin and concentrated in 25 mM Tris-HCl pH = 6.8 using a 50 kDa MWCO Amicon Ultra-15 filter.

[6] = system: apoplastic proteases in apoplastic fluids (AF) of N. benthamiana; assay: Residual immunogenicity (ROS assay) after incubation of elicitor in AF of WT plants; format: in vitro ADME, Nicotiana benthamiana; conditions: ROS read-out, n = 6
Protocol: as §3
(§6) ROS assays were performed as described previously. Briefly, after incubation in water overnight, one leaf disc (6 mm diameter) was added to 100 µl solution containing 25 ng/µl luminol, 25 ng/µl Horse Radish Peroxidase (HRP) and specified elicitor treatments. For assays with treated elicitors, elicitor peptides or purified flagellin were incubated in AFs from N. benthamiana leaves (wild-type, agroinfiltrated, VIGS-silenced or sbt5.2 mutants) or purified SBT5.2a-HIS for the specified time at 21 °C. After incubation, 25 ng/µl luminol and 25 ng/µl HRP were added to the AFs. Chemiluminescence was measured immediately with the Infinite M200 plate reader (Tecan, Mannedorf, Switzerland) every minute for one hour. Standard errors were calculated at each time point and for each treatment.

[7] = system: subtilases in AF of N. benthamiana; assay: Residual immunogenicity (ROS assay) after incubation in AF of leaves transiently expressing Epi1 or empty vector; format: in vitro ADME, Nicotiana benthamiana; conditions: 10 µg/ml monomeric flagellin or 100 nM flg22, 40 min in AF; ROS read-out, n = 6; Fig. 3b
Protocol: as §1
as §3, with “AFs were immediately used or frozen using liquid nitrogen and stored at −20 °C until use.” left out
ROS assays were performed as described previously. […] Chemiluminescence was measured immediately with the Infinite M200 plate reader (Tecan, Mannedorf, Switzerland) every minute for one hour. Standard errors were calculated at each time point and for each treatment.

SBT5.2 subtilases in AF = assay: Residual immunogenicity (ROS assay) after incubation in AF of TRV::SBT5.2 or TRV::GFP plants; format: in vitro ADME, Nicotiana benthamiana; conditions: 100 nM flg22, 0, 30, 60 min in AF; ROS read-out, n = 6; Fig. 4b
Protocol: as §4, §3
ROS assays were performed as described previously. Briefly, after incubation in water overnight, one leaf disc (6 mm diameter) was added to 100 µl solution containing 25 ng/µl luminol, 25 ng/µl Horse Radish Peroxidase (HRP) and specified elicitor treatments. […] Chemiluminescence was measured immediately with the Infinite M200 plate reader (Tecan, Mannedorf, Switzerland) every minute for one hour. Standard errors were calculated at each time point and for each treatment.

[8] = system: AF of sbt5.2 mutant N. benthamiana; format: in vitro ADME, Nicotiana benthamiana; conditions: 100 nM flg22, 30 min in AF; ROS read-out, n = 6; Fig. 5c
Protocol: as §3, §6

purified SBT5.2a-His [9] = assay: Residual immunogenicity (ROS assay) after incubation with purified SBT5.2a-His; format: biochemical, Nicotiana benthamiana; conditions: 50 nM flg22, 10 μg/ml SBT5.2a-His, 40 min; ROS read-out, n = 6; Fig. 6b
Protocol: as §5, §6

[10] = system: leaf discs of WT or sbt5.2 mutant N. benthamiana; assay: ROS burst assay on sbt5.2 mutant versus WT leaf discs (timing, dose response); format: cell-based, Nicotiana benthamiana; conditions: n = 12; Fig. 5e, 5f
Protocol: as §6

FLS2 = conditions: microsomal fractions that presumably lack subtilases; read-out: IC50, competition with binding by radiolabeled flg22; cited from earlier work
Description: However, although flagellin can bind FLS2, it is unclear at this stage if it would also activate FLS2 signalling because that would require subsequent BAK1 binding to FLS2. The extension of flg22 at its C-terminus is likely to obstruct BAK1 binding, based on the structure of flg22 bound to the FLS2 and BAK1[34].

For “LQIA ↓ TKITS [QP4, custom-synthesised quenched peptide with flg22-flanking site LQIA ↓ TKITS, DABCYL and Glu-EDANS]”, the “QP processing in AF containing Epi1” value [1] was “near complete blockage”, the “QP processing in AF of sbt5.2 mutant plants versus WT” value [2] was “strongly reduced but not significant” and the solubility [3] was “problematic”.
In the case of “SAKDDAAG [QP3, custom-synthesised quenched peptide with cleavage site SAKD ↓ DAAG within flg22, DABCYL and Glu-EDANS]”, the “QP processing in AF containing Epi1” value [1] is reported as “suppressed more by Epi1 than by HsTIMP”, the “QP processing in AF of TRV::SBT1.9a and TRV::SBT1.7a plants” value [4] is reported as “also reduced” and the “QP processing in AF of TRV::SBT5.2 plants compared to TRV::GFP control” value [4] is reported as “not as strongly reduced”. The “QP processing in AF of sbt5.2 mutant plants versus WT” value [2] was “only slightly reduced” and the “cleavage by purified SBT5.2a-His” value (purified SBT5.2a-His [5]) was “hardly cleaved”.
With “TRLSSGLKINSAKDDAAGLQIA [flg22, reference compound]” the “immunogenicity after incubation in AF of WT plants” value ([6]; 100 nM flg22, 30 min in AF, Fig. 5c) was “quickly lost”, the “immunogenic activity after incubation in AF from leaves expressing Epi1” value [7] was “immunogenic activity was detected” and the “decline of immunogenicity in AF of TRV::SBT5.2 compared to TRV::GFP plants” value (SBT5.2 subtilases in AF) was “much slower”. For the same substance, the “immunogenicity after incubation in AF of sbt5.2 plants” value [8] was “retains immunogenicity significantly longer” and the “elicitor activity after incubation with purified SBT5.2a-His” value (purified SBT5.2a-His [9]) was “inactivated its elicitor activity”.
With flagellin the “timing and amplitude of oxidative burst, WT versus sbt5.2 mutant leaf discs” value [10] was “similar”, the “oxidative burst after incubation with AF” value ([6]; 10 µg/ml monomeric flagellin incubated with AF for 30 or 60 min, 21 °C, Fig. 1e) was “quickly disappears” and the “immunogenic activity after incubation in AF from leaves expressing Epi1” value [7] was “immunogenic activity was detected”. The IC50 (FLS2) was 120 nM.
